Results taken from US20260048155A1, “BIOCOMPATIBLE PARAHYDROGEN HYPERPOLARIZED SOLUTIONS BY PRECIPITATION AND RE-DISSOLUTION” (North Carolina State University, priority 2022, published 2026).

Assay: Titration study of sodium pyruvate solubility / precipitation from methanol by added solvent
Format: physicochemical
Method: Precipitating and filtering of pyruvate from solutions using thermally polarized natural-abundance sodium pyruvate: Considering the finding of low pyruvate solubility herein, ethanol was an obvious first choice as the precipitating solvent. […] Other candidates (acetone, 1-propanol, and ethyl acetate) were tested next. All three solvents mixed with methanol and dissolved 6 mM of SABRE catalyst well. […] For each of the three solvents (FIG. 11) eight 500-μL batches of methanol containing different concentrations of pyruvate were prepared (cpyr∈[80, 60, 40, 30, 20, 8, 4, 2] mM). Then, 9.5 mL of the respective precipitating solvent were added to each sample. In all 80 mM samples, prominent and almost instantaneous precipitation was observed as the solutions lost transparency and became milky. For 1-propanol, acetone, and ethyl acetate, precipitation was visible for all mixtures with 40 mM, 20 mM, and 4 mM or more initial concentration of pyruvate, respectively. Additionally, as ethyl acetate and water are immiscible, a later purification of this solvent was expected to be advantageous (see below). Based on these observations, the rest of the study was continued with acetone and ethyl acetate.

precipitation on ethanol addition (9-fold volume of ethanol added to 80 mM in methanol): no precipitation was detected | initial pyruvate concentration in methanol at which precipitation was visible (500 μL methanol + 9.5 mL 1-propanol): ≥ 40 mM | initial pyruvate concentration in methanol at which precipitation was visible (500 μL methanol + 9.5 mL acetone): ≥ 20 mM | initial pyruvate concentration in methanol at which precipitation was visible (500 μL methanol + 9.5 mL ethyl acetate): ≥ 4 mM
Compound: CC(=O)C(=O)[O-].[Na+] [sodium pyruvate]
